{"source": "paper PMC9820828", "about": "“Anti-Melanogenesis Effects of a Cyclic Peptide Derived from Flaxseed via Inhibition of CREB Pathway” (International Journal of Molecular Sciences, 2022)", "format_in_all_cases": "cell-based, mouse", "key": {"[1]": {"system": "B16F10 melanoma cells", "experiment": "Cell viability (MTT assay)", "settings": "for cell viability (MTT): B16F10 melanoma cells; for toxicity (MTT): at the concentration contained in LOMIX and at all concentrations (0–50 μM)", "experimental": "Mouse-derived B16F10 melanoma cells were incubated in the DMEM medium supplemented with 10% (v/v) FBS and 1% streptomycin–penicillin solution at 37 °C and 5% CO2. Sub-culture was conducted by detaching the cells with trypsin-EDTA after reaching 90% confluence.\nThe effects of LOMIX and each LO compound on cell survival were determined using the MTT assay. B16F10 melanoma cells (100 μL of 1.5 × 10^5 cells/mL) were seeded in a 96-well plate with 100 μL of the testing sample [LOMIX (0–200 μg/mL) or LO (0–50 μM)]. After 2 days, MTT solution (10 μL) was added to each well, and cells were incubated for an additional 3 h in the dark. The reaction was stopped by adding 100 μL of 10% SDS complemented with 0.01 M HCl. Moreover, 5000 cells/well of B16F10 melanoma cells were incubated in 96-well plates to check the cytotoxicity of LOMIX in the presence of α-MSH. The 10 μL of MTT solution was added to the cells incubated with the LOMIX (50 and 100 μg/mL) and α-MSH (100 nM) for 0, 24, and 48 h. Subsequently, the stopping solution (100 μL) (10% SDS solution with 0.01 M HCl) was added after 3 h incubation. The absorbance was measured at 570 nm using Synergy™ HTX (Biotek Instruments Inc., Winooski, VT, USA)."}, "[2]": {"system": "B16F10 melanoma cells", "experiment": "Extracellular melanin secretion in α-MSH-stimulated cells", "settings": "48 h; for melanin (pigment) secretion: 12.5, 25 and 50 μM; for secretion of melanin: 6.25, 12.5 and 25 μM, dose-dependent", "experimental": "(§1) B16F10 melanoma cells (1.5 × 10^5 cells/mL) were seeded in a 6-well plate and cultured overnight. Then, the culture media were replaced with phenol red-free media containing DMSO (vehicle) or α-MSH (melanogenesis inducer) for the identification of the color change caused by melanogenesis. The cells were treated with different concentrations of LOMIX (25, 50, and 100 μg/mL) or LO A, B (6.25, 12.5, and 25 μM), D, E, and F and G (12.5, 25, and 50 μM). Arbutin at 1 mM was used as a positive control. After 48 h of the incubation, the culture medium’s optical density was detected at 475 nm to measure the amount of extracellular melanin secretion. Meanwhile, the remaining cells were harvested with 1 mL cold PBS and lysed with a lysis buffer (50 mM Tris-HCl pH 7.5, 120 mM NaCl, 20 mM β-glycerophosphate pH 7.5, and 2% NP-40). After centrifuging at 12,000× g for 5 min., the cell pellets were dissolved in 10% DMSO in 1 M NaOH and incubated at 60 °C. The melanin contents were measured at 405 nm using a Synergy™ HTX microplate reader. All photos of melanin-secreted medium and intracellular melanin contents were collected."}, "[3]": {"system": "B16F10 melanoma cells", "experiment": "Intracellular melanin content in α-MSH-stimulated cells", "settings": "for melanin synthesis (melanin contents): 6.25, 12.5 and 25 μM, α-MSH, 48 h, B16F10 cells; for suppression of the synthesis of melanin: 12.5 and 25 μM, B16F10 cell lines", "experimental": "as §1"}, "[4]": {"system": "MITF", "experiment": "Real-time PCR, MITF mRNA", "settings": "0–25 μM, co-treatment with 100 nM α-MSH, 24 h, B16F10 cells", "experimental": "(§2) B16F10 cells (3 × 10^5 cells/mL) stimulated by 100 nM α-MSH were treated with LOMIX (0–100 μg/mL), LO A or B (0–25 μM), or arbutin 1 mM for 24 h. The cells were lysed with 300 μL of TRI Reagent® to extract total RNA. Then, 1 μg of total RNA with Reverse Transcriptase M-MuLV (Thermo Fisher Scientific, Waltham, MA, USA) was utilized to synthesize cDNA according to the manufacturer’s instructions. Real-time PCR was conducted, as previously described."}, "[5]": {"system": "Tyrosinase", "experiment": "Real-time PCR, Tyrosinase mRNA", "settings": "0–25 μM, co-treatment with 100 nM α-MSH, 24 h, B16F10 cells", "experimental": "as §2"}, "[6]": {"system": "TYRP-1", "experiment": "Real-time PCR, TYRP-1 mRNA", "settings": "0–25 μM, co-treatment with 100 nM α-MSH, 24 h, B16F10 cells", "experimental": "as §2"}, "[7]": {"system": "TYRP-2", "experiment": "Real-time PCR, TYRP-2 mRNA", "settings": "0–25 μM, co-treatment with 100 nM α-MSH, 24 h, B16F10 cells", "experimental": "as §2"}, "[8]": {"system": "MITF", "experiment": "Immunoblotting, MITF protein", "settings": "0–25 μM, 100 nM α-MSH, 24 h, B16F10 cell lysates, Western blotting", "experimental": "(§3) To induce melanogenesis, 3 × 10^5 B16F10 melanoma cells per mL were treated with 100 nM of α-MSH. Subsequently, 1 mM of arbutin or LO A or B (0–25 μM) was administered to the culture media for 24 h. The cells were then harvested with 1 mL of cold PBS and lysed with lysis buffer containing protease inhibitors (20 mM Tris-HCl pH 7.5, 2 mM EDTA, 20 mM NaF, 150 mM NaCl, 50 mM β-glycerol phosphate, and 2% NP-40 containing 2 μg/mL of leupeptin, pepstatin, and aprotinin). The whole cell lysates were centrifuged at 12,000× g for 5 min to purify the intracellular protein. SDS-polyacrylamide gel electrophoresis (Bio-Rad, Hercules, CA, USA) was conducted to separate the equivalent protein contents according to size. The separated proteins were transferred to polyvinylidene fluoride membranes and blocked with 3% (w/v) bovine serum albumin (BSA) solution for at least 30 min at ambient temperature. They then were incubated overnight with primary antibodies (1:2500 dilution) at 4 °C. After three 10-min washes with 0.1% (w/v) Tween-20, the membranes were probed with HRP-conjugated secondary antibodies (1:2500 dilution). The signals of each protein sample were detected with enhanced chemiluminescence reagents."}, "[9]": {"system": "CREB", "experiment": "Immunoblotting, phosphorylated CREB", "settings": "0–25 μM, 100 nM α-MSH, 24 h, B16F10 cell lysates, Western blotting", "experimental": "as §3"}, "[10]": {"system": "PKA", "experiment": "Immunoblotting, phosphorylated PKA", "settings": "0–25 μM, 100 nM α-MSH, 24 h, B16F10 cell lysates, Western blotting", "experimental": "as §3"}}, "data": [{"substance": "[1–8-NαC],[1-(Rs,Ss)-MetO]-linusorb A2 [LO3]", "values": [{"measurement": "cell viability (MTT)", "setting": "[1]; 50 μM, 48 h", "value": "not altered"}, {"measurement": "toxicity (MTT)", "setting": "[1]; B16F10 cells, 48 h", "value": "did not show toxicity"}, {"measurement": "melanin (pigment) secretion", "setting": "[2]", "value": "decreased"}]}, {"substance": "[1–8-NαC],[1-(Rs,Ss)-MetO]-linusorb B1 [LO4]", "values": [{"measurement": "cell viability (MTT)", "setting": "[1]; 50 μM, 48 h", "value": "not altered"}, {"measurement": "toxicity (MTT)", "setting": "[1]; B16F10 cells, 48 h", "value": "did not show toxicity"}, {"measurement": "melanin (pigment) secretion", "setting": "[2]", "value": "decreased"}]}, {"substance": "[1–9-NαC]-linusorb B2 [LO2]", "values": [{"measurement": "secretion of melanin", "setting": "[2]", "value": "dramatically downregulated"}, {"measurement": "melanin synthesis (melanin contents)", "setting": "[3]", "value": "decreased"}, {"measurement": "suppression of the synthesis of melanin", "setting": "[3]", "value": "up to 90%"}, {"measurement": "expression of MITF at mRNA level", "setting": "[4]", "value": "downregulated"}, {"measurement": "expression of tyrosinase at mRNA level", "setting": "[5]", "value": "downregulated"}, {"measurement": "expression of TYRP1 at mRNA level", "setting": "[6]", "value": "downregulated"}, {"measurement": "expression of TYRP-2 at mRNA level", "setting": "[7]", "value": "suppressed"}, {"measurement": "protein level of MITF", "setting": "[8]", "value": "decreased levels"}, {"measurement": "phosphorylation of CREB", "setting": "[9]", "value": "blocked"}, {"measurement": "phosphorylation of PKA", "setting": "[10]", "value": "not PKA"}]}, {"substance": "[1–9-NαC]-linusorb B3 [LO1]", "values": [{"measurement": "cell viability (MTT)", "setting": "[1]; 25 μM, 48 h", "value": "not altered"}, {"measurement": "cell survival (MTT)", "setting": "[1]; 50 μM, B16F10 cells, 48 h", "value": "declined"}, {"measurement": "toxicity", "setting": "[1]; 12.5 and 25 μM, B16F10 cell lines", "value": "without toxicity"}, {"measurement": "secretion of melanin", "setting": "[2]", "value": "dramatically downregulated"}, {"measurement": "melanin synthesis (melanin contents)", "setting": "[3]", "value": "decreased"}, {"measurement": "suppression of the synthesis of melanin", "setting": "[3]", "value": "up to 90%"}, {"measurement": "expression of MITF at mRNA level", "setting": "[4]", "value": "effectively inhibited"}, {"measurement": "expression of tyrosinase at mRNA level", "setting": "[5]", "value": "effectively inhibited"}, {"measurement": "expression of TYRP1 at mRNA level", "setting": "[6]", "value": "effectively inhibited"}, {"measurement": "expression of TYRP-2 at mRNA level", "setting": "[7]", "value": "suppressed"}, {"measurement": "protein level of MITF", "setting": "[8]", "value": "significantly decreased"}, {"measurement": "phosphorylation of CREB", "setting": "[9]", "value": "suppressed"}, {"measurement": "phosphorylation of PKA", "setting": "[10]", "value": "suppressed"}]}]}
